Reference: US20210047324A1 (Aptinyx Inc., priority 2018, published 2021)
Like-named read-outs stand apart in the source and are kept apart here.

Key:
NMDAR2A = biological target: T1, NMDAR2A (Homo sapiens, UniProt Q12879); test: NMDAR agonist assay, [3H]MK-801 binding, NMDAR2A expressing HEK cell membranes; assay type: biochemical; conditions: 50 μM glutamate; for EC50: read-out: NMDAR2A B: log EC50 (converted); for Emax: 0.25 h, read-out: NMDAR2A A: % maximal [3H]MK-801 binding relative to 1 mM glycine
T1 construct: expressed in transfected cells; host or cells: HEK cells (membrane extract)
T1 sequence (Q12879 23-1464, species assumed, other chains not shown): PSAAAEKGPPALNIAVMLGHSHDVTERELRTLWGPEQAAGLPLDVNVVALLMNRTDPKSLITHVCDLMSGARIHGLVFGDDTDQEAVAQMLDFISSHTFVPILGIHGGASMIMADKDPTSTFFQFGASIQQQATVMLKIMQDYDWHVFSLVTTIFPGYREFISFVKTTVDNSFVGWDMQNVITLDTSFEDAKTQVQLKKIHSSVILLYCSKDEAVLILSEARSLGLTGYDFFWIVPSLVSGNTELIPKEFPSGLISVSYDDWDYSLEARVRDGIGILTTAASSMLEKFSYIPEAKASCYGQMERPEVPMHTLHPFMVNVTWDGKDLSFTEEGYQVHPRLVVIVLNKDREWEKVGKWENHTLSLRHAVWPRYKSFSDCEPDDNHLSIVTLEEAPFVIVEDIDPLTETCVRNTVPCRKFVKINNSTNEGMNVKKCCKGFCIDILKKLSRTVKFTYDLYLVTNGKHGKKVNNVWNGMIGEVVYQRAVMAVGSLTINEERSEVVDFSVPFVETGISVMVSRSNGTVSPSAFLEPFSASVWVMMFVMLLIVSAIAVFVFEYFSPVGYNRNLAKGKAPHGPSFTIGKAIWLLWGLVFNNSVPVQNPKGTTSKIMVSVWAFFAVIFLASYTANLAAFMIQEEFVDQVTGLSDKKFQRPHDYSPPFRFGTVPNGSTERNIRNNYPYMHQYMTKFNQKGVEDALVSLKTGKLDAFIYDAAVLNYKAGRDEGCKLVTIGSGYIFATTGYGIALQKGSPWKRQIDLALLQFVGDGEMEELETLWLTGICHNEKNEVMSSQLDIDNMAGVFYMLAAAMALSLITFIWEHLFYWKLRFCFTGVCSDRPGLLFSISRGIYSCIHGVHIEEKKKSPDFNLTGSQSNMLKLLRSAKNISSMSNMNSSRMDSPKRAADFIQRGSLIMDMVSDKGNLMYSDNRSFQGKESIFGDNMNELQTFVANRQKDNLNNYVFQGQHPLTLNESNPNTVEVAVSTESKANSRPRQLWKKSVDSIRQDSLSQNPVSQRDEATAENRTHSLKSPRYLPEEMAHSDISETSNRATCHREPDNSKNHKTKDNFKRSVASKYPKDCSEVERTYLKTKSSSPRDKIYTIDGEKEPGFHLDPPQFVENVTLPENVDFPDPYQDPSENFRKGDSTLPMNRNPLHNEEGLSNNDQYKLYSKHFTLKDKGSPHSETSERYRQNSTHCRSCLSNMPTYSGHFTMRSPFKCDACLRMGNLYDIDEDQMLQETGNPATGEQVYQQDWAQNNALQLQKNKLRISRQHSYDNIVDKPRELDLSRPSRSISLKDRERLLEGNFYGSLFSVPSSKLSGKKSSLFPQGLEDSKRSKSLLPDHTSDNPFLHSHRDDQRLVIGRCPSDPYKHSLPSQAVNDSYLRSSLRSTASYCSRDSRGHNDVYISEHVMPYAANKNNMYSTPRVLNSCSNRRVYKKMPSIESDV
How it was run: (§1)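 Membranes from HEK cells (300 μg protein) preincubated 15 min with 50 μM glutamate plus compound (1×10^−15–1×10^−7 M) or 1 mM glycine, then with 0.3 μCi [3H]MK-801 for 15 min at 25° C. (nonequilibrium); filter-bound DPM, baseline-subtracted, expressed as % of 1 mM glycine; EC50 and % maximum from three-parameter fit.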

NMDAR2D [1] = biological target: T2, NMDAR2D (Homo sapiens, UniProt O15399); test: NMDAR agonist assay, [3H]MK-801 binding, NMDAR2D expressing HEK cell membranes; assay type: biochemical; conditions: 50 μM glutamate
T2 construct: expressed in transfected cells; host or cells: HEK cells (membrane extract)
T2 sequence (O15399 28-1336, species assumed, other chains not shown): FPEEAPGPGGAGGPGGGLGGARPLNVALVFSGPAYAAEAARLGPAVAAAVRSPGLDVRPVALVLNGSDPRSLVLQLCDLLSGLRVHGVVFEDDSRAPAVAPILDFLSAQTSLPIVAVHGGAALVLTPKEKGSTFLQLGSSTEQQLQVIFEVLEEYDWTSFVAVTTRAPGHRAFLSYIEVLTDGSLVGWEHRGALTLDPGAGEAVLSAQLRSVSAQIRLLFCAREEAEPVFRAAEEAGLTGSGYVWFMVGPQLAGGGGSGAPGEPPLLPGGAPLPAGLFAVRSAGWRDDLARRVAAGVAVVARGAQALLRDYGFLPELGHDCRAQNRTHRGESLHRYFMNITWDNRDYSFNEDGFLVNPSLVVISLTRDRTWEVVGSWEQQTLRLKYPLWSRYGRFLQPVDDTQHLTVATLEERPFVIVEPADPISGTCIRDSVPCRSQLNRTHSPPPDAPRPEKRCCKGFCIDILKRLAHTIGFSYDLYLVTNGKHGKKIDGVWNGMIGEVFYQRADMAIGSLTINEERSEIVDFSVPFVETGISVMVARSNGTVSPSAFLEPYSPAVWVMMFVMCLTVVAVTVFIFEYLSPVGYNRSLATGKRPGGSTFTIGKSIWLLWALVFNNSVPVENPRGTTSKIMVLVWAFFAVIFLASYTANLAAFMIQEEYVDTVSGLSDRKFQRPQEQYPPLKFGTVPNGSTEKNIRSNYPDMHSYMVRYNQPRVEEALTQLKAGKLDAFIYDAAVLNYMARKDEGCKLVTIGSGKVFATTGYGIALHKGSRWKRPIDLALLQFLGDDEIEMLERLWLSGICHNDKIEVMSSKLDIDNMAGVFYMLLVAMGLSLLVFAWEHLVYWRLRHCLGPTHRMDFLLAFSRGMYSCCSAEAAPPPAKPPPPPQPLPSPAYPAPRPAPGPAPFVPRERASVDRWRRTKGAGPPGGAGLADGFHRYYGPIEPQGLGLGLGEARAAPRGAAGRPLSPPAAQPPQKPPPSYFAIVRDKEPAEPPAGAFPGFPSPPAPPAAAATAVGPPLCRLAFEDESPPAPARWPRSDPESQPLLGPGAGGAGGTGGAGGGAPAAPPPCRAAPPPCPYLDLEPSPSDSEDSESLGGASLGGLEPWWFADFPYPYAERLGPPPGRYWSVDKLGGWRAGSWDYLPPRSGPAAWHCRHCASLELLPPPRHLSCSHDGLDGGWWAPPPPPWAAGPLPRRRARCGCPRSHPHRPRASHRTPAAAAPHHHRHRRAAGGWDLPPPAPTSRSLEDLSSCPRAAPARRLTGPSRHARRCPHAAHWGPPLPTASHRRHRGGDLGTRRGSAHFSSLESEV
Experimental: (§2) Assays were conducted as described by Moskal et al., “GLYX-13: a monoclonal antibody-derived peptide that acts as an N-methyl-D-aspartate receptor modulator,” Neuropharmacology, 49, 1077-87, 2005. These studies were designed to determine if the test compounds act to facilitate NMDAR activation in NMDAR2A, NMDAR2B, NMDAR2C or NMDAR2D expressing HEK cell membranes as measured by increases in [^3H]MK-801 binding.
(§3) In the assay, 300 μg of NMDAR expressing HEK cell membrane extract protein was preincubated for 15 minutes at […] in the presence of saturating concentrations of glutamate (50 μM) and varying concentrations of test compound (1×10^−15M-1×10^−7M), or 1 mM glycine. Following the addition of 0.3 μCi of [3H]MK-801 (22.5 Ci/mmol), reactions were again incubated for 15 minutes at 25° C. (nonequilibrium conditions). Bound and free [3H]MK-801 were separated via rapid filtration using a Brandel apparatus.
(§4) In analyzing the data, the DPM (disintegrations per minute) of [3H]MK-801 remaining on the filter were measured for each concentration of test compound or for 1 mM glycine. The DPM values for each concentration of a ligand (N=2) were averaged. The baseline value was determined from the best fit curve of the DPM values modeled using the GraphPad program and the log(agonist) vs. response (three parameters) algorithm was then subtracted from all points in the dataset. The % maximal [^3H]MK-801 binding was then calculated relative to that of 1 mM glycine: all baseline subtracted DPM values were divided by the average value for 1 mM glycine. The EC50 and % maximal activity were then obtained from the best fit curve of the % maximal [3H]MK-801 binding data modelled using the GraphPad program and the log(agonist) vs. response (three parameters) algorithm.
(§5) The tables below summarize the results for the wild type […] NMDAR2A, NMDAR2B, NMDAR2C, and NMDAR2D, and whether the compound is not an agonist (−), is an agonist (+), or is a strong agonist (++), where column A is based on the % maximal [3H]MK-801 binding relative to 1 mM glycine (−=0; <100%=+; and >100%=++); and column B is based on log EC50 values (0=−; ≥1×10^−9 M (e.g., −8)=+; and <1×10^−9 M (e.g., −10)=++).

NMDAR2D [2] = biological target: T3, NMDAR2D (Homo sapiens, UniProt O15399+Q05586); test: as above; assay type: biochemical; conditions: 50 μM glutamate; read-out: NMDAR2D B: log EC50 (converted)
T3 construct: expressed in transfected cells; host or cells: HEK cells (membrane extract)
T3 sequence (O15399 28-1336, species assumed, other chains not shown): as above
Experimental: as §2, §3, §4, §5

NMDAR2B = biological target: T4, NMDAR2B (Homo sapiens, UniProt Q13224); test: NMDAR agonist assay, [3H]MK-801 binding, NMDAR2B expressing HEK cell membranes; assay type: biochemical; conditions: 50 μM glutamate; for EC50: read-out: NMDAR2B B: log EC50 (converted)
T4 construct: expressed in transfected cells; host or cells: HEK cells (membrane extract)
T4 sequence (Q13224 27-1484, species assumed, other chains not shown): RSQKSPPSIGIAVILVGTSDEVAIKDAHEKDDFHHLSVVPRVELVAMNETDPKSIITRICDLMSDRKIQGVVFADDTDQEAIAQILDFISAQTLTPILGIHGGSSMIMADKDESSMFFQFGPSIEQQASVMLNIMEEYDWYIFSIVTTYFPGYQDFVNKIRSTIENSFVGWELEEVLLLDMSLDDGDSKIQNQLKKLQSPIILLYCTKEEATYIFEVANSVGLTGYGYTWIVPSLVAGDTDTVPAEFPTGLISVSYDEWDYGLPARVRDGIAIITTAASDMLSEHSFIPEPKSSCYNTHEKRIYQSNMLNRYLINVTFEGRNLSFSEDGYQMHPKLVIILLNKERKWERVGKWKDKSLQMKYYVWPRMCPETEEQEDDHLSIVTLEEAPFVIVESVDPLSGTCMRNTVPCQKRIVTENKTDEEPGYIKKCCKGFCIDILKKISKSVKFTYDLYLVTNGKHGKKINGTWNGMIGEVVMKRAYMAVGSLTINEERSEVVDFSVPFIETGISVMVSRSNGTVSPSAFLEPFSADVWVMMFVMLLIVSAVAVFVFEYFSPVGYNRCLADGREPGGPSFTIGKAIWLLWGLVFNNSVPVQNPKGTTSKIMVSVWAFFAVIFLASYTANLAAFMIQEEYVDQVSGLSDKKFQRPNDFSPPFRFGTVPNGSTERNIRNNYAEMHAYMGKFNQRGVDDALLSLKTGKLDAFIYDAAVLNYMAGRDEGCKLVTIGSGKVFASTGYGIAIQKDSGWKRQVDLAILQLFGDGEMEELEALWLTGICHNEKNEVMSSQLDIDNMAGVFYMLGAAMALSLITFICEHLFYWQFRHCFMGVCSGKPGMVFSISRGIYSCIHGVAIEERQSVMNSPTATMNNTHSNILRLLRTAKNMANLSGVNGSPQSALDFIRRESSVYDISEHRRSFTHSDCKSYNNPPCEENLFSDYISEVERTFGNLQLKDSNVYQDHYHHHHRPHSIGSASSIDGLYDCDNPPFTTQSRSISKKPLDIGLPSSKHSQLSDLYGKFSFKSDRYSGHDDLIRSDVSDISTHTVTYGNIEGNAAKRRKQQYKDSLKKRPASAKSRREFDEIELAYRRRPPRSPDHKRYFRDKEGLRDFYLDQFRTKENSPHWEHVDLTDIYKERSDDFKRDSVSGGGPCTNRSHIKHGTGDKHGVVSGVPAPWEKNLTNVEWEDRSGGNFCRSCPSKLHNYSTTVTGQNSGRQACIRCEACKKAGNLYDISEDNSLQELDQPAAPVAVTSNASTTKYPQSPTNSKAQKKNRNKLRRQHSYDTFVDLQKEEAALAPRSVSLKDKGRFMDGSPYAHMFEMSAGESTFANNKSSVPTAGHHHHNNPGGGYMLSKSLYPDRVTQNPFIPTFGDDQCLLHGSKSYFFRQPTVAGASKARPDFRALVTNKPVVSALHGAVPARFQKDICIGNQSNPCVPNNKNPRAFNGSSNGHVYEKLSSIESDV
How it was run: as §1

NMDAR2C = biological target: T5, NMDAR2C (Homo sapiens, UniProt Q14957); test: NMDAR agonist assay, [3H]MK-801 binding, NMDAR2C expressing HEK cell membranes; assay type: biochemical; conditions: 50 μM glutamate; for EC50: read-out: NMDAR2C B: log EC50 (converted)
T5 construct: expressed in transfected cells; host or cells: HEK cells (membrane extract)
Experimental: as §2, §3, §4, §5

[3] = IV pharmacokinetics in Sprague Dawley rats; assay type: in vivo; conditions: rat, 2 mg/kg, normal saline
Experimental: Sprague Dawley rats were dosed intravenously using a normal saline formulation containing 2 mg/kg of the compounds identified in the below table. The table below summarizes the results of the IV pharmacokinetics.

[4] = Oral pharmacokinetics in Sprague Dawley rats (plasma, brain, CSF); assay type: in vivo; conditions: rat
Experimental: In another experiment, Sprague Dawley rats were dosed per os (oral gavage) using a normal saline formulation containing 10 mg/kg of the compounds identified in the table below. Plasma, brain, and CSF samples were analyzed at various time points over a 24 hour period. The table below summarizes the results of the oral pharmacokinetics, where the first three values (Tmax, Cmax and AUClast) are plasma values.

Sprague Dawley rats = test: Porsolt forced swim test; assay type: in vivo; conditions: 0.1 mg/kg
Experimental: A non-clinical in vivo pharmacology study (Porsolt assay) was performed to measure antidepressant-like effects. The study allowed for the evaluation of the effects of each compound on the Porsolt forced swim test as assessed by the rats' response (reduced floating time) during a 5-minute swimming test.
Male 2-3 month old Sprague Dawley rats were used (Harlan, Indianapolis, Ind.). Rats were housed in Lucite cages with aspen wood chip bedding, maintained on a 12:12 light:dark cycle (lights on at 5 AM), and given ad libitum access to Purina lab chow (USA) and tap water throughout the study.
The Porsolt forced swim test adapted for use in rats was performed as described by Burgdorf et al., (The long-lasting antidepressant effects of rapastinel (GLYX-13) are associated with a metaplasticity process in the medial prefrontal cortex and hippocampus. Neuroscience 308:202-211, 2015). Animals were placed in a 46 cm tall×20 cm in diameter clear glass tube filled to 30 cm with tap water (23±1° C.) for 15 min on the first day (habituation) and 5 min on the subsequent test day. Animals were tested 1 h or 24 h post-dosing with the test compounds or vehicle control (0.5% sodium carboxymethyl cellulose in 0.9% sterile saline). A subset of compounds tested at 1 h post-dosing was tested again 1 wk post-dosing. Animals received a 15 min habituation session 1 day before the first 5 min test. Water was changed after every other animal. Animals were videotaped, and floating time as defined as the minimal amount of effort required to keep the animals head above water was scored offline by a blinded experimenter with high inter-rater reliability (Pearson's r >0.9).

[5] = Microsomal stability (Human); assay type: in vitro ADME; conditions: after 60 minutes
Experimental: (§6) Microsomal stability of disclosed compounds was investigated. The following table indicates the percent of compound remaining after 60 minutes.

[6] = Microsomal stability (Rat); assay type: in vitro ADME; conditions: after 60 minutes
Experimental: as §6

Plasma stability (Human) = assay type: in vitro ADME; conditions: after 60 minutes
Experimental: (§7) Plasma stability of disclosed compounds was investigated. The following table indicates the percent of compound remaining after 60 minutes.

Plasma stability (Rat) = assay type: in vitro ADME; conditions: after 60 minutes
Experimental: as §7

Row | EC50 (NMDAR2A) [nM] | Emax (NMDAR2A; relative to 1 mM glycine) [%] | NMDAR2D A: % maximal [3H]MK-801 binding relative to 1 mM glycine (NMDAR2D [1]) | EC50 (NMDAR2D [2]) [nM] | EC50 (NMDAR2B) [nM] | EC50 (NMDAR2C) [nM] | NMDAR2C A: % maximal [3H]MK-801 binding relative to 1 mM glycine (NMDAR2C) | CSF Cmax ([4]; per os, 10 mg/kg) [ng/mL] | Brain Cmax ([4]; per os, 10 mg/kg) [ng/mL] | Microsomal (Human): percent of compound remaining [5] [%] | Microsomal (Rat): percent of compound remaining [6] [%] | Plasma (Human): percent of compound remaining (Plasma stability (Human)) [%] | Plasma (Rat): percent of compound remaining (Plasma stability (Rat)) [%] | SMILES | % reduction in float time (Sprague Dawley rats; 1 h post-dose) [%] | Significance vs. vehicle (Sprague Dawley rats; 1 h post-dose) | % reduction in float time (Sprague Dawley rats; 24 h post-dose) [%] | Significance vs. vehicle (Sprague Dawley rats; 24 h post-dose) | further results
1 | < 1 | < 100 | + (<100%=+) | < 1 | – | – | – | – | – | – | – | – | – | CC(C)(C)OC(=O)N1CCCCCC12CNC2=O (single isomer, unassigned) [EI-1, tert-butyl 1-oxo-2,5-diazaspiro[3.6]decane-5-carboxylate] | – | – | – | – | –
2 | < 1 | < 100 | + (<100%=+) | < 1 | < 1 | < 1 | + (<100%=+) | 1414.8 | 1457.4 | 95 | 100 | 98 | 94 | CC(C)(C)OC(=O)N1CCCC12CCCNC2=O (single isomer, unassigned) [EV-1, tert-butyl 6-oxo-1,7-diazaspiro[4.5]decane-1-carboxylate] | 53 | Yes | 45 | Yes | Emax (NMDAR2B; relative to 1 mM glycine, read-out: NMDAR2B A: % maximal [3H]MK-801 binding relative to 1 mM glycine): < 100%; AUC(0-t) ([3]; Sprague-Dawley, in vivo, iv): 1270 ng·h/mL; clearance ([3]; Sprague-Dawley, in vivo, iv): 26.2 mL/min/kg; half-life ([3]; Sprague-Dawley, in vivo, iv): 25.2 min; Cmax ([3]; Sprague-Dawley, in vivo, iv, read-out: Cmax): 2730 ng/mL; Vd ([3]; Sprague-Dawley, in vivo, iv, read-out: Vss): 0.72 L/kg; Tmax ([4]; Sprague-Dawley, po, per os, 10 mg/kg, plasma, read-out: Tmax): 15 min; AUC(0-t) ([4]; Sprague-Dawley, plasma, po, 10 mg/kg, per os): 2850 ng·h/mL; bioavailability ([4]; Sprague-Dawley, plasma, po, 10 mg/kg, per os 10 mg/kg): 45%; Cmax ([4]; Sprague-Dawley, plasma, po, 10 mg/kg, per os, 10 mg/kg, plasma, read-out: Cmax): 3690 ng/mL
3 | < 1 | – | + (<100%=+) | – | < 1 | < 1 | + (<100%=+) | 2324.1 | 1213 | 79 | 91 | 100 | 79 | CC(C)(C)OC(=O)N1CCCC12CCCNC2=O (single isomer, unassigned) [EV-2, tert-butyl 6-oxo-1,7-diazaspiro[4.5]decane-1-carboxylate] | 84 | Yes | 76 | Yes | NMDAR2A A: % maximal [3H]MK-801 binding relative to 1 mM glycine (NMDAR2A; relative to 1 mM glycine): + (<100%=+); NMDAR2B A: % maximal [3H]MK-801 binding relative to 1 mM glycine (NMDAR2B; relative to 1 mM glycine): + (<100%=+); EC50 (NMDAR2D [1]; read-out: NMDAR2D B: log EC50 (converted)): < 1 nM; AUClast [3]: 1138.1 ng·h/mL; Cl [3]: 28.4 mL/min/kg; Cmax [3]: 2608.4 ng/mL; T1/2 [3]: 24.6 min; Vss [3]: 0.88 L/kg; % F ([4]; per os 10 mg/kg): 63%; AUC(0-last) ([4]; per os, 10 mg/kg, plasma): 3567.9 ng·h/mL; Cmax ([4]; per os, 10 mg/kg, plasma): 4346 ng/mL; Tmax ([4]; per os, 10 mg/kg, plasma): 15 min
